According to ChEMBL document CHEMBL2150982, “Synthesis and SAR of 1-hydroxy-1H-benzo[d]imidazol-2(3H)-ones as Inhibitors of D-Amino Acid Oxidase” (ACS Med Chem Lett, 2012):

Columns and labels:
[1] = molecular target: D-amino-acid oxidase (Homo sapiens, UniProt P14920); experiment: Inhibition of human recombinant DAAO expressed in HEK293 cells using D-serine as substrate after 20 mins by horseradish peroxidase-coupled assay
[2] = molecular target: D-amino-acid oxidase (Sus scrofa, UniProt P00371); experiment: Inhibition of pig DAAO using D-serine as substrate after 20 mins by horseradish peroxidase-coupled assay
Chain of D-amino-acid oxidase (Sus scrofa, UniProt P00371) (P00371 whole entry): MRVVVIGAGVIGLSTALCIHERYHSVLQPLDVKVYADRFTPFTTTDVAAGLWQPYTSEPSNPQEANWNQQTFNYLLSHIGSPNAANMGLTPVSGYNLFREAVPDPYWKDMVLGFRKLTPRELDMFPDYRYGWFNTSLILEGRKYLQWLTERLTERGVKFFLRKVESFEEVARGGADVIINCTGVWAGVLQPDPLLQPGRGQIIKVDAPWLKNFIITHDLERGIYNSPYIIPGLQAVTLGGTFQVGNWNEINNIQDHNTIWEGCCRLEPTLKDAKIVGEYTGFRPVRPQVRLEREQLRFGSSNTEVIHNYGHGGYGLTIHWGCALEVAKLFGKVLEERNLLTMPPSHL

[3] = (§1) Metabolic stability in mouse plasma assessed as compound remaining at 5 uM after 1 hr by LC/MS/MS analysis; type: ADME, cell-free; conditions: read-out: Stability
[4] = test system: Mus musculus; experiment: Pharmaco-enhancing activity in CD1 mouse assessed as increase in D-serine level in plasma at 30 mg/kg, po measured up to 2 hrs relative to control; type: ADME, organism-based; set-up: dose 30 mg/kg, route oral; conditions: in vivo
[5] = (§2) Metabolic stability in mouse liver microsomes assessed as compound remaining at 5 uM after 1 hr by LC/MS/MS analysis in presence of NADPH; type: ADME, Microsome; conditions: liver microsomes, read-out: Stability
[6] = test system: Mus musculus; experiment: Pharmaco-enhancing activity in CD1 mouse assessed as increase in D-serine level in plasma at 30 mg/kg, po measured at 30 mins relative to control; type: ADME, organism-based; set-up: dose 30 mg/kg, route oral; conditions: in vivo, 0.5 h
[7] = test system: Liver; experiment: Metabolic stability in mouse liver microsomes assessed as compound remaining at 5 uM after 1 hr by LC/MS/MS analysis in presence of UDPGA; type: ADME, Microsome
[8] = Metabolic stability in mouse liver microsomes assessed as compound remaining at 5 uM after 1 hr by LC/MS/MS analysis; type: ADME, Microsome; conditions: read-out: Stability
[9] = test system: Plasma; experiment: as §1; type: ADME, cell-free; conditions: 1 h, 5 µM
[10] = test system: Liver; experiment: as §2; type: ADME, Microsome; conditions: microsomes, 1 h, 5 µM
[11] = test system: Mus musculus; experiment: Pharmaco-enhancing activity in CD1 mouse assessed as increase in D-serine level in plasma at 30 mg/kg, po relative to control; type: ADME, organism-based; set-up: dose 30 mg/kg, route oral; conditions: in vivo

Chain of D-amino-acid oxidase (Homo sapiens, UniProt P14920) (P14920 whole entry): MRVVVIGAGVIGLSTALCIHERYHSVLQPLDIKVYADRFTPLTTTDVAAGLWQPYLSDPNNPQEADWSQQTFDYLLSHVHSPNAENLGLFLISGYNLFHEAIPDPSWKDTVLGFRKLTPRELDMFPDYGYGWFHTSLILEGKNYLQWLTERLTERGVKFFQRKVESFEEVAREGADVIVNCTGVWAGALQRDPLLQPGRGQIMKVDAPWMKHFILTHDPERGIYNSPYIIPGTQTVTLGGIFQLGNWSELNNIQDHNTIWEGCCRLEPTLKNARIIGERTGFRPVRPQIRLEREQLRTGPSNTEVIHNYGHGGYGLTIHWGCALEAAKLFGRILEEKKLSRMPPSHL

Row | SMILES | IC50 [1] | IC50 [2] | other results
1 | CCC(C)c1cccc2c1[nH]c(=O)n2O (stereo unspecified) | > 100 µM | 40 µM | 
2 | Nn1c(=O)[nH]c2ccccc21 | > 100 µM |  | 
3 | Cn1c(=O)n(O)c2ccccc21 | > 100 µM |  | 
4 | O=c1[nH]c2cc3c(cc2n1O)CCC3 | 30 µM | 10 µM | 
5 | CCCc1cccc2c1[nH]c(=O)n2O | 20 µM | 30 µM | 
6 | O=c1[nH]c2c(F)cccc2n1O | 0.1 µM | 0.5 µM | 
7 | CCOc1cccc2c1[nH]c(=O)n2O | 50 µM | 50 µM | 
8 | O=c1[nH]c2ncccc2n1O | 1 µM |  | 
9 | O=c1[nH]c2cccnc2n1O | 30 µM |  | 
10 | O=c1[nH]c2c(F)cc(F)cc2n1O | 0.08 µM | 0.4 µM | remaining at 1 h, 5 µM [3]: 100%; Activity [4]: Active; remaining at 1 h, 5 µM [5]: 100%; Activity [6]: Active; Stability [7]: 0.6%; remaining at 1 h, 5 µM [8]: 100%
11 | COn1c(=O)[nH]c2ccccc21 | > 100 µM |  | 
12 | CCc1cccc2c1[nH]c(=O)n2O | 80 µM | 20 µM | 
13 | O=C1Cc2ccccc2N1O | > 100 µM |  | 
14 | O=c1[nH]c2ccc3c(c2n1O)CCC3 | > 100 µM | > 100 µM | 
15 | CC(C)c1cccc2c1[nH]c(=O)n2O | 20 µM | 10 µM | 
16 | Oc1nc2ccccc2[nH]1 | > 100 µM |  | 
17 | O=c1[nH]c2c(Cc3ccccc3)cccc2n1O | 10 µM | 50 µM | 
18 | O=c1[nH]c2cccc(F)c2n1O | 3 µM | 20 µM | 
19 | O=c1[nH]c2ccc(F)c(F)c2n1O | 8 µM | 20 µM | 
20 | O=C1Nc2ccccc2C1O (stereo unspecified) | > 100 µM |  | 
21 | O=c1[nH]c2c3c(ccc2n1O)CCO3 | 0.8 µM | 0.2 µM | 

Further lines, with some results ahead:

Row | IC50 [1] | IC50 [2] | SMILES | other results
22 | 70 µM | 30 µM | O=c1[nH]c2cc(F)c(F)cc2n1O | 
23 | 70 µM |  | O=c1[nH]c2ccncc2n1O | 
24 | 0.9 µM | 1 µM | O=c1[nH]c2cc(F)ccc2n1O | 
25 | 20 µM | 4 µM | Cc1cc(C)c2[nH]c(=O)n(O)c2c1 | 
26 | 0.4 µM | 0.6 µM | O=c1[nH]c2ccc(F)cc2n1O | 
27 | 40 µM | > 100 µM | Cc1cccc2[nH]c(=O)n(O)c12 | 
28 | 4 µM | 4 µM | Cc1ccc2c(c1)[nH]c(=O)n2O | 
29 | 9 µM | 2 µM | O=c1[nH]c2ccc(Cl)cc2n1O | 
30 | 30 µM | 7 µM | Cc1ccc2[nH]c(=O)n(O)c2c1 | 
31 | > 100 µM | > 100 µM | Cc1c(F)ccc2[nH]c(=O)n(O)c12 | 
32 | 20 µM | 1 µM | Cc1ccc2c([nH]c(=O)n2O)c1C | 
33 | 0.2 µM | 0.4 µM | Cc1cccc2c1[nH]c(=O)n2O | 
34 | 2 µM | 1 µM | Cc1cc2[nH]c(=O)n(O)c2cc1F | 
35 | 0.6 µM | 1 µM | O=c1[nH]c2ccccc2n1O | 
36 | 0.1 µM | 0.4 µM | COc1cccc2c1[nH]c(=O)n2O | Stability [9]: 90%; Stability [10]: 60%; Stability [7]: Unstable; remaining at 1 h, 5 µM [8]: 100%; Activity [11]: Not Active
37 | 0.07 µM | 0.7 µM | Cc1c(F)ccc2c1[nH]c(=O)n2O | 
